Assay: C(sp3)-C(sp3) bond formation by visible-light-mediated Cys desulfurisation: alanyl radical adds to terminal alkene of allylglycine (or O-allyl Ser, pentenylGly, acrylamide); TCEP 50 eq (25 mM), (Ir[dF(CF3)ppy]2(dtbpy))PF6 1 mol%, 450 nm blue LED; unprotected peptides
Details: 6 M Gdn.HCl, 0.1 M Na2HPO4 pH 7.5-8.0 / MeCN 9:1, 0.5 mM, 25.0 °C

With CCCC[C@@H]1NC(=O)[C@H](CO)NC(=O)[C@H](CC(=O)O)NC(=O)CNC(=O)[C@H](C(C)C)NC(=O)[C@H](CCC(N)=O)NC(=O)[C@@H](NC(=O)[C@H](CC(C)C)NC(=O)[C@H](Cc2c[nH]cn2)NC(=O)[C@H](CCCNC(=N)N)NC(C)=O)CCCC[C@@H](C(=O)N[C@@H](CCCNC(=N)N)C(=O)N[C@@H](CO)C(=O)N[C@H](C(N)=O)[C@@H](C)CC)NC1=O the ring closure, isolated yield (from C=CC[C@H](NC(=O)[C@H](CC(C)C)NC(=O)[C@H](Cc1c[nH]cn1)NC(=O)[C@H](CCCNC(=N)N)NC(C)=O)C(=O)N[C@@H](CCC(N)=O)C(=O)N[C@H](C(=O)NCC(=O)N[C@@H](CC(=O)O)C(=O)N[C@@H](CO)C(=O)N[C@@H](CCCC)C(=O)N[C@@H](CS)C(=O)N[C@@H](CCCNC(=N)N)C(=O)N[C@@H](CO)C(=O)N[C@H](C(N)=O)[C@@H](C)CC)C(C)C, 26-membered ring) was 23%.

With CC(=O)N[C@H]1CCCC[C@@H](C(N)=O)NC(=O)[C@H](CCC(=O)O)NC(=O)[C@H](Cc2ccccc2)NC(=O)[C@H](C)NC1=O [Ac-(allylGly)-Ala-Phe-Glu-Cys-NH2] the ring closure, isolated yield (from C=CC[C@H](NC(C)=O)C(=O)N[C@@H](C)C(=O)N[C@@H](Cc1ccccc1)C(=O)N[C@@H](CCC(=O)O)C(=O)N[C@@H](CS)C(N)=O, 17-membered ring) was 74%.

With CSCC[C@@H]1NC(=O)[C@@H]2CCCN2C(=O)[C@H](CCCNC(=N)N)NC(=O)[C@@H](NC(C)=O)CCCC[C@@H](C(N)=O)NC(=O)[C@H](Cc2c[nH]cn2)NC1=O [Ac-(allylGly)-Arg-Pro-Met-His-Cys-NH2] the ring closure, isolated yield (from C=CC[C@H](NC(C)=O)C(=O)N[C@@H](CCCNC(=N)N)C(=O)N1CCC[C@H]1C(=O)N[C@@H](CCSC)C(=O)N[C@@H](Cc1c[nH]cn1)C(=O)N[C@@H](CS)C(N)=O, 20-membered ring) was 48%.

With CC(=O)N[C@H]1CCCC[C@@H](C(N)=O)NC(=O)[C@H](C(C)C)NC(=O)[C@H](CCCNC(=N)N)NC(=O)[C@@H]2CCCN2C(=O)[C@H](Cc2c[nH]cn2)NC(=O)[C@H](CC(N)=O)NC1=O [Ac-(allylGly)-Asn-His-Pro-Arg-Val-Cys-NH2] the ring closure, isolated yield (from C=CC[C@H](NC(C)=O)C(=O)N[C@@H](CC(N)=O)C(=O)N[C@@H](Cc1c[nH]cn1)C(=O)N1CCC[C@H]1C(=O)N[C@@H](CCCNC(=N)N)C(=O)N[C@H](C(=O)N[C@@H](CS)C(N)=O)C(C)C, 23-membered ring) was 32%.

Work on CC[C@H](C)[C@@H]1NC(=O)[C@H](CCCCN)NC(=O)[C@H](Cc2ccc(O)cc2)NC(=O)[C@H](CO)NC(=O)[C@H](CC(=O)O)NC(=O)[C@@H](NC(C)=O)CCCC[C@@H](C(N)=O)NC1=O [Ac-(allylGly)-Asp-Ser-Tyr-Lys-Ile-Cys-NH2] yielded a ring closure, isolated yield (from C=CC[C@H](NC(C)=O)C(=O)N[C@@H](CC(=O)O)C(=O)N[C@@H](CO)C(=O)N[C@@H](Cc1ccc(O)cc1)C(=O)N[C@@H](CCCCN)C(=O)N[C@H](C(=O)N[C@@H](CS)C(N)=O)[C@@H](C)CC, 23-membered ring) of 58%.

CCCC[C@@H]1NC(=O)[C@H](CO)NC(=O)[C@H](CC(=O)O)NC(=O)CNC(=O)[C@H](C(C)C)NC(=O)[C@H](CCC(N)=O)NC(=O)[C@@H](NC(C)=O)CCCC[C@@H](C(N)=O)NC1=O [Ac-(allylGly)-Gln-Val-Gly-Asp-Ser-Nle-Cys-NH2] showed a ring closure, isolated yield (from C=CC[C@H](NC(C)=O)C(=O)N[C@@H](CCC(N)=O)C(=O)N[C@H](C(=O)NCC(=O)N[C@@H](CC(=O)O)C(=O)N[C@@H](CO)C(=O)N[C@@H](CCCC)C(=O)N[C@@H](CS)C(N)=O)C(C)C, 26-membered ring) of 76%.

For CC(=O)N[C@H]1CCCC[C@@H](C(N)=O)NC(=O)[C@H](Cc2c[nH]c3ccccc23)NC(=O)[C@H](CCC(N)=O)NC(=O)[C@H](CC(C)C)NC(=O)[C@H](CCC(=O)O)NC1=O [Ac-(allylGly)-Glu-Leu-Gln-Trp-Cys-NH2], the ring closure, isolated yield (from C=CC[C@H](NC(C)=O)C(=O)N[C@@H](CCC(=O)O)C(=O)N[C@@H](CC(C)C)C(=O)N[C@@H](CCC(N)=O)C(=O)N[C@@H](Cc1c[nH]c2ccccc12)C(=O)N[C@@H](CS)C(N)=O, 20-membered ring) was 37%.

CC[C@H](C)[C@@H]1NC(=O)[C@@H](NC(C)=O)CCCC[C@@H](C(N)=O)NC(=O)[C@H](CCCNC(=N)N)NC(=O)[C@H](Cc2c[nH]c3ccccc23)NC1=O [Ac-(allylGly)-Ile-Trp-Arg-Cys-NH2] gave a ring closure, isolated yield (from C=CC[C@H](NC(C)=O)C(=O)N[C@H](C(=O)N[C@@H](Cc1c[nH]c2ccccc12)C(=O)N[C@@H](CCCNC(=N)N)C(=O)N[C@@H](CS)C(N)=O)[C@@H](C)CC, 17-membered ring) of 59%.

With CSCC[C@@H]1NC(=O)[C@H](Cc2ccc(O)cc2)NC(=O)[C@H](CC(C)C)NC(=O)[C@@H](NC(C)=O)CCCC[C@@H](C(N)=O)NC1=O [Ac-(allylGly)-Leu-Tyr-Met-Cys-NH2] the ring closure, isolated yield (from C=CC[C@H](NC(C)=O)C(=O)N[C@@H](CC(C)C)C(=O)N[C@@H](Cc1ccc(O)cc1)C(=O)N[C@@H](CCSC)C(=O)N[C@@H](CS)C(N)=O, 17-membered ring) was 69%.

In the case of CC[C@H](C)[C@@H]1NC(=O)[C@H](CCCCN)NC(=O)[C@@H](NC(C)=O)CCCC[C@@H](C(N)=O)NC(=O)[C@H](Cc2ccc(O)cc2)NC(=O)[C@H](CO)NC1=O [Ac-(allylGly)-Lys-Ile-Ser-Tyr-Cys-NH2], the ring closure, isolated yield (from C=CC[C@H](NC(C)=O)C(=O)N[C@@H](CCCCN)C(=O)N[C@H](C(=O)N[C@@H](CO)C(=O)N[C@@H](Cc1ccc(O)cc1)C(=O)N[C@@H](CS)C(N)=O)[C@@H](C)CC, 20-membered ring) is reported as 64%.

In the case of CC(=O)N[C@H]1CCCC[C@@H](C(N)=O)NC(=O)[C@H](CCCCN)NC(=O)[C@@H]2CCCN2C(=O)[C@H]([C@@H](C)O)NC1=O [Ac-(allylGly)-Thr-Pro-Lys-Cys-NH2], the ring closure, isolated yield (from C=CC[C@H](NC(C)=O)C(=O)N[C@H](C(=O)N1CCC[C@H]1C(=O)N[C@@H](CCCCN)C(=O)N[C@@H](CS)C(N)=O)[C@@H](C)O, 17-membered ring) is reported as 48%.

With CC(=O)N[C@H]1CCCC[C@@H](C(N)=O)NC(=O)[C@H](CC(=O)O)NC(=O)CNC(=O)[C@H](C(C)C)NC1=O [Ac-(allylGly)-Val-Gly-Asp-Cys-NH2] the ring closure, isolated yield (from C=CC[C@H](NC(C)=O)C(=O)N[C@H](C(=O)NCC(=O)N[C@@H](CC(=O)O)C(=O)N[C@@H](CS)C(N)=O)C(C)C, 17-membered ring) was 54%.

CC(=O)N[C@H]1CCCC[C@@H](C(N)=O)NC(=O)[C@H](CCC(N)=O)NC(=O)[C@H](Cc2c[nH]cn2)NC(=O)[C@H](C(C)C)NC1=O [Ac-(allylGly)-Val-His-Gln-Cys-NH2] showed a ring closure, isolated yield (from C=CC[C@H](NC(C)=O)C(=O)N[C@H](C(=O)N[C@@H](Cc1c[nH]cn1)C(=O)N[C@@H](CCC(N)=O)C(=O)N[C@@H](CS)C(N)=O)C(C)C, 17-membered ring) of 59%.

In the case of CC[C@H](C)[C@@H]1NC(=O)[C@H](CCCCN)NC(=O)[C@@H](NC(C)=O)CCCC[C@@H](C(N)=O)NC(=O)[C@H](Cc2ccc(O)cc2)NC(=O)[C@H](CO)NC1=O [Ac-Cys-Lys-Ile-Ser-Tyr-(allylGly)-NH2], the ring closure, isolated yield (from C=CC[C@H](NC(=O)[C@H](Cc1ccc(O)cc1)NC(=O)[C@H](CO)NC(=O)[C@@H](NC(=O)[C@H](CCCCN)NC(=O)[C@H](CS)NC(C)=O)[C@@H](C)CC)C(N)=O, 20-membered ring) is reported as 64%.

In the case of CCCC[C@H](NC(=O)[C@@H]1CCCC[C@H](NC(=O)[C@H](C)NC(=O)[C@H](CC(C)C)NC(=O)[C@H](Cc2c[nH]cn2)NC(C)=O)C(=O)N[C@@H](C(C)C)C(=O)NCC(=O)N[C@@H](CC(=O)O)C(=O)N1)C(=O)N[C@@H](CC(=O)O)C(=O)N[C@@H](CCCNC(=N)N)C(N)=O [Ac-His-Leu-Ala-(allylGly)-Val-Gly-Asp-Cys-Nle-Asp-Arg-NH2], the ring closure, isolated yield (from C=CC[C@H](NC(=O)[C@H](C)NC(=O)[C@H](CC(C)C)NC(=O)[C@H](Cc1c[nH]cn1)NC(C)=O)C(=O)N[C@H](C(=O)NCC(=O)N[C@@H](CC(=O)O)C(=O)N[C@@H](CS)C(=O)N[C@@H](CCCC)C(=O)N[C@@H](CC(=O)O)C(=O)N[C@@H](CCCNC(=N)N)C(N)=O)C(C)C, 17-membered ring) is reported as 23%.

C[C@@H]1NC(=O)CCC[C@@H](C(N)=O)NC(=O)[C@H](C)NC(=O)[C@H](Cc2ccccc2)NC1=O [Acryloyl-Ala-Phe-Ala-Cys-NH2] showed a ring closure, isolated yield (from C=CC(=O)N[C@@H](C)C(=O)N[C@@H](Cc1ccccc1)C(=O)N[C@@H](C)C(=O)N[C@@H](CS)C(N)=O, 15-membered ring, 1.0 h) of 0%.

C[C@@H]1NC(=O)[C@H](Cc2ccccc2)NC(=O)[C@H](C)NC(=O)[C@@H](N)CCCCCC[C@@H](C(N)=O)NC1=O [H-(4-pentenylGly)-Ala-Phe-Ala-Cys-NH2] gave a ring closure, isolated yield (from C=CCCC[C@H](N)C(=O)N[C@@H](C)C(=O)N[C@@H](Cc1ccccc1)C(=O)N[C@@H](C)C(=O)N[C@@H](CS)C(N)=O, 19-membered ring, 1.0 h) of 32%.

Source: paper PMC11206203, “Peptide macrocyclisation via intramolecular interception of visible-light-mediated desulfurisation” (Chemical Science, 2024)
